In the experiment the test system is P388. Description: Cytotoxicity against mouse P388 cells after 72 hrs by MTT assay. Format: functional, cell-based. Particulars: P388, 72 h.

In turn, `CC(=O)CC(C)(C)N.CC(C)=CCC[C@@H](C)/C=C/CCOS(=O)(=O)O` displayed an IC50 of 290 µM.

These data come from ChEMBL document CHEMBL1158135, “Sulfated alkenes from the echinus Temnopleurus hardwickii” (J Nat Prod, 2006).
